Laboratory results taken from ChEMBL document CHEMBL1201862, “PubChem BioAssay data set” (2004).
The source made the active and inactive calls.

Tests used:
[1] = target: Eukaryotic translation initiation factor 4E (Mus musculus, UniProt P63073); assay: blockers of eIF4G binding by eIF4E – biochemical, TR-FRET, dose response (AID 855); type: functional;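 note: potency for disrupting eIF4E binding to eIF4GI seen as loss of FRET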
[2] = A549 cell cytotoxicity, dose response, cytotoxicity control, plate reader, cherry-pick, antagonist series (AID 743412); type: functional, cell-based
[3] = blockers of bursicon-stimulated LGR2 cAMP reporter – cell-based, HEK293, CRE-luciferase reporter, cherry pick, set 2, dose response (AID 743343); type: functional;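 note: transfected cells were stimulated with diluted bursicon conditioned medium after compound addition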
[4] = blockade of melanocortin 4 receptor signaling – cell-based, plate reader, cherry pick, counter-screen for LGR2 antagonist project, dose response (AID 743444); type: functional;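 note: transfected HEK 293 cells stimulated with alpha-MSH peptide; potency of inhibitors of the alpha-MSH evoked signal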
[5] = target: T1, Long-chain-fatty-acid--AMP ligase FadD28 (Mycobacterium tuberculosis, UniProt P9WQ59); assay: Fluorescence polarization aasay to screen for inhibitors that compete for the binding of FadD28 to a bisubstrate Measured in Biochemical System Using Plate Reader - 2147-01_Inhibitor_Dose_CherryPick_Activity.; type: functional, Mycobacterium tuberculosis H37Rv
T1 sequence (P9WQ59 whole entry): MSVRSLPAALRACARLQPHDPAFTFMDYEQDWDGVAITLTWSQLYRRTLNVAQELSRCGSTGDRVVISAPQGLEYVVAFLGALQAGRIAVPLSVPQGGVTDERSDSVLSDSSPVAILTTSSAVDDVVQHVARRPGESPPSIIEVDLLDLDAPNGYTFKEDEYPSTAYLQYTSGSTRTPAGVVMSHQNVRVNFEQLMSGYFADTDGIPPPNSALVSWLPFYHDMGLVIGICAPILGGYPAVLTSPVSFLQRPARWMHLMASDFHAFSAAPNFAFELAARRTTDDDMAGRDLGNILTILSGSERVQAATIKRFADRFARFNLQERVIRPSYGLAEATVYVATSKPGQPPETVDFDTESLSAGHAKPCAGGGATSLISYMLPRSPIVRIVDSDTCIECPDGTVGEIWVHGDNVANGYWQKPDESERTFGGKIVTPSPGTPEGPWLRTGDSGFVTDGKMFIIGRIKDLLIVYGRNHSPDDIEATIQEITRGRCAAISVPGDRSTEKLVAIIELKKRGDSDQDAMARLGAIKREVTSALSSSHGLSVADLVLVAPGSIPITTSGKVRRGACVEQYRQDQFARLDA

cells [6] = type: functional, cell-based
cells [7] = type: functional, cell-based; remark: listed apart in the source
Escherichia coli = assay: microbe, parasite or virus in culture
[8] = luciferase reporter signal suppression in cells – H4 neuroglioma cells, luminescence, dose response (AID 1990); type: functional, cell-based
BJ [9] = assay: BJ-TERT fibroblast viability loss – cell-based, RAS-independent, luminescence, dose response (AID 1933); type: functional; settings: Homo sapiens
[10] = Luminescence Cell-Based Dose Response HTS to Identify Inhibitors of 5'UTR Stem-Loop Driven Prion Protein mRNA Translation in H4 Neuroglioblastoma Cells. [Related pubchem assays: 1827 (Project Summary), 1813 (Primary HTS)]; type: functional
[11] = alpha-synuclein stem-loop luciferase translation blockers – H4 neuroglioma cells, luminescence, confirmation (AID 1988); type: functional, cell-based
BJ [12] = assay: cells; type: functional, cell-based; settings: Homo sapiens
BJ [13] = assay: BJ-TERT-LT-ST fibroblast viability loss – cell-based, RAS-independent, luminescence, dose response (AID 1935); type: functional; settings: Homo sapiens;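 note: BJ fibroblasts immortalized with TERT plus LT and ST oncogenes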
[14] = DRD fibroblast viability loss – cell-based, non-viral oncogenic, luminescence, dose response (AID 1934); type: functional; settings: Homo sapiens
[15] = target: T2, Replicative DNA helicase DnaB (Mycobacterium tuberculosis, UniProt P9WMR3); assay: DnaB intein splicing inhibitors, dose response, biochemical, cell-free fluorescence (AID 449749); type: functional
T2 sequence (P9WMR3 whole entry): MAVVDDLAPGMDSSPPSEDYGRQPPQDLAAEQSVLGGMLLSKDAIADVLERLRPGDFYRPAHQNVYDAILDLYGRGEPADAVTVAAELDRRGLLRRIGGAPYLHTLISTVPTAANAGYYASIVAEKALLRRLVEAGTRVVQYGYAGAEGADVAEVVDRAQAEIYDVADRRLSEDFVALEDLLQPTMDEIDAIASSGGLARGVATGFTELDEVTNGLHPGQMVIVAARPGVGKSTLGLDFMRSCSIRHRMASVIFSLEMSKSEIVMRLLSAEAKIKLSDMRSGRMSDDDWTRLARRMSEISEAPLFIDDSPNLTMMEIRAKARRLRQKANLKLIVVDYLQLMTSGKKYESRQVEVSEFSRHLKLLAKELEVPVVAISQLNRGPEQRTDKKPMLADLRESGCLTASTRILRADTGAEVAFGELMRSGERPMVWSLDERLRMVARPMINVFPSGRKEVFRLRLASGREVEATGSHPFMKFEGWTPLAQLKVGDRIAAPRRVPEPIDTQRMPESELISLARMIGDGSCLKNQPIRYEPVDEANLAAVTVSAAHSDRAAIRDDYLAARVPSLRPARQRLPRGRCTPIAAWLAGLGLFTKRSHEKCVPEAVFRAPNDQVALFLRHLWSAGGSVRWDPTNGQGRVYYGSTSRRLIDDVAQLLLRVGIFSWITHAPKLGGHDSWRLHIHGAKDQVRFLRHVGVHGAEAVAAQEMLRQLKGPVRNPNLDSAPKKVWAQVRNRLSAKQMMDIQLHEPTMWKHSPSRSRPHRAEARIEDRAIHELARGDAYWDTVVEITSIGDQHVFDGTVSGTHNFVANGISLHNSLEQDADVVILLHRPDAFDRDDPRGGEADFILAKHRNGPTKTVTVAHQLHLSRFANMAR

Protein RecA = target: T3, Protein RecA (Mycobacterium tuberculosis, UniProt P9WHJ3); assay: Fluorescence Cell-Free Homogeneous Dose Retest to Identify Inhibitors of RecA-Intein Splicing Activity. [Related pubchem assays (depositor defined):AID2097, AID2223, AID489010, AID492950]; type: functional
T3 sequence (P9WHJ3 whole entry): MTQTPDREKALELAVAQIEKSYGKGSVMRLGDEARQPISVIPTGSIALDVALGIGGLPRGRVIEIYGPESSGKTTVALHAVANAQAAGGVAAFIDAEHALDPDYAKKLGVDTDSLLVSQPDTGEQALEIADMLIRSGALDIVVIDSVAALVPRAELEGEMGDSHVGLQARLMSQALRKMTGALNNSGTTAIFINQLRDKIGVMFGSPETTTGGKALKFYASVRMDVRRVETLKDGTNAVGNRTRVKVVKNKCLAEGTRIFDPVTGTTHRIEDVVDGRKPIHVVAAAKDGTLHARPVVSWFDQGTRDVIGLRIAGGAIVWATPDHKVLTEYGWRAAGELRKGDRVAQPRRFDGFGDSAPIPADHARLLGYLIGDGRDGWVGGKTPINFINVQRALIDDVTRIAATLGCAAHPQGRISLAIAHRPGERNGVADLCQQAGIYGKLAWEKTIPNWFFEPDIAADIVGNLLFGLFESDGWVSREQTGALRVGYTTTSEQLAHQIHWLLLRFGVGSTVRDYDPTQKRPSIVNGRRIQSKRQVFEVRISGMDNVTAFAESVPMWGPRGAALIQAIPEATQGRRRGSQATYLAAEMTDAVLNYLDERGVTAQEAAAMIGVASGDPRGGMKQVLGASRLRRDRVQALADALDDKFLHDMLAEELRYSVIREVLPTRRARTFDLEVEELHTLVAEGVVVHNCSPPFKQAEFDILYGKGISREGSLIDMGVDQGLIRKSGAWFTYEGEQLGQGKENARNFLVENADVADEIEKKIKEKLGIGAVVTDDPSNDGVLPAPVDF

INS1 = assay: INS-1E survival protection against cytokine death – cell-based, luminescence, retest, dose response (AID 449756); type: functional; settings: Rattus norvegicus;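 note: cell death triggered by IL-1 beta plus TNF-alpha plus IFN-gamma mixture; protective hits raise ATP signal compared with cytokine alone wells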
[16] = target: T4, COUP transcription factor 2 (Homo sapiens, UniProt P24468); assay: Luminescence-based cell-based high throughput dose response assay to identify inhibitors of COUP-TFII (NR2F2).; type: functional;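 note: HEK293 cells transiently cotransfected with COUP-TFII expression vector and reporter; luciferase reporter luminescence driven by COUP-TFII from the pX2-168 reporter plasmid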
T4 sequence (P24468 whole entry): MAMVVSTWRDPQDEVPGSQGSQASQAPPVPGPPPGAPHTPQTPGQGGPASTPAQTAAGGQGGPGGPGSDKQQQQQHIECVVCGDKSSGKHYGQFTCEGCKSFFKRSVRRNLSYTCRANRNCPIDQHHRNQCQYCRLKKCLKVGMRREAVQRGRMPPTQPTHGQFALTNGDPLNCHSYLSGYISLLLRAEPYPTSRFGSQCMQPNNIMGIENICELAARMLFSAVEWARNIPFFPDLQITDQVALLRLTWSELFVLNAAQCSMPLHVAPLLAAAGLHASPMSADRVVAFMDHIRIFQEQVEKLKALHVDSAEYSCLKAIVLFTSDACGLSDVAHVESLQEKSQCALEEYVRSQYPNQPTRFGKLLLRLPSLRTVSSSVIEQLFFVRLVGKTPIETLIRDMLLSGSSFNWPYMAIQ

[17] = target: Luciferin 4-monooxygenase (Photinus pyralis, UniProt P08659); assay: inhibition of purified Photinus pyralis luciferase – biochemical, luminescence, dose response (AID 1891)
Luciferin 4-monooxygenase, sequence (P08659 whole entry): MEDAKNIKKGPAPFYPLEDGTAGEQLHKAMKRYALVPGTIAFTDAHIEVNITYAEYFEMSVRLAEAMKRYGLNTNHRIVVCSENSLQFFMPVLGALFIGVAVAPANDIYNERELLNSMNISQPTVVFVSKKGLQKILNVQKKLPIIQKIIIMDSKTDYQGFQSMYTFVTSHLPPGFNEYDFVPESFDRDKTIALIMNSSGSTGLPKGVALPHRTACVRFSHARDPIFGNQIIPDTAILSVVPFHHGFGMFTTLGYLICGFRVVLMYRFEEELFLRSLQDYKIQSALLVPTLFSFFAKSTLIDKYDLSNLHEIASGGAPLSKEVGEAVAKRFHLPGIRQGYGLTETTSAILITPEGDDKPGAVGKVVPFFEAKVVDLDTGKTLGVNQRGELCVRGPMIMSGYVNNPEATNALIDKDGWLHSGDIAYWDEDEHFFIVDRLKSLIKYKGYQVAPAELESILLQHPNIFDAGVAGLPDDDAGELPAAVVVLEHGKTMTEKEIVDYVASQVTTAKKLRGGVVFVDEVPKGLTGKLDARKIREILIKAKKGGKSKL

[18] = Luminescence Cell-Based Dose Confirmation HTS to Identify Inhibitors of Platelet Dense Granule Release. [Related pubchem assays: 1663 (Primary HTS), 1678 (Summary of Project)]; type: functional
[19] = general cell-killing toxicity readout – plate reader, dry powder samples, cytotoxicity control for PAX8 inhibitor project, dose response (AID 743021); type: functional, cell-based

Eukaryotic translation initiation factor 4E, sequence (P63073 whole entry): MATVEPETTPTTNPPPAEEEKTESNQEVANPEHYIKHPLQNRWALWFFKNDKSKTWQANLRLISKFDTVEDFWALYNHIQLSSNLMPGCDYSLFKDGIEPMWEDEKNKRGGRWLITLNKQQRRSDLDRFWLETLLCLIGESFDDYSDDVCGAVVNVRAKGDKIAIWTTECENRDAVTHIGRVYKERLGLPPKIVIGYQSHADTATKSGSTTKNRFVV

Cc1nc(C(C)(C)O)n(-c2ccccc2)n1
IC50 [1]: > 64 µM (inactive)

CCn1c(SCC(=O)Nc2ccccc2OC)nc2ccccc2c1=O
IC50 [1]: > 64 µM (inactive)

Cc1ccc2[nH]c(-c3ccc(NC(=O)C4CCCO4)cc3)nc2c1 (stereo not drawn)
AC50 [2]: > 52 µM (inactive) | AC50 [3]: 5.48 µM (active) | AC50 [4]: 11.9 µM (active)

Cc1cccc(NC(=O)CN2C(=O)S/C(=C\c3cc(C)n(C)c3C)C2=O)c1
AC50 [5]: 0.381 µM (active)

Cc1cc(C)c(NS(=O)(=O)c2ccc3c(c2)NC(=O)CCS3)c(C)c1
EC50 (cells [6]): > 350 µM (not active) | EC50 (cells [7]): 58.1 µM (active) | AC50 (Escherichia coli): 23.1 µM (active)

C=CCn1cc(CN2CCC(C(=O)Nc3ccc(Oc4cccnc4)cc3)CC2)c(C)n1
AC50 [5]: 21 µM (active)

N#CC(C#N)=C(Nc1ccc(F)cc1)SCc1cccc(Br)c1
EC50 [8]: 11.2 µM (active) | EC50 (BJ [9]): 11.8 µM (inconclusive) | EC50 [10]: 0.272 µM (active) | EC50 [11]: 13.5 µM (active) | EC50 (BJ [12]): 22.2 µM (active) | EC50 (BJ [13]): 22.5 µM (active) | EC50 [14]: 21.7 µM (active) | AC50 [15]: 3.08 µM (active) | EC50 (Protein RecA): 2.38 µM (active) | AC50 (INS1): 2.92 µM (active) | IC50 [16]: 11.3 µM (inactive)

COc1cc(NC(=O)C2CCCCC2)c(OC)cc1NC(=O)c1ccco1
AC50 (Escherichia coli): 30.6 µM (active)

Cc1onc(-c2ccccc2)c1C(=O)Nc1nc(-c2cc(F)ccc2F)cs1
AC50 (Escherichia coli): 38.9 µM (active)

O=c1cc(Nc2ccc3c(c2)OCCO3)[nH]c(=O)n1C1CCCCC1
AC50 [5]: 61.1 µM (active)

COc1cccc(CC(=O)Nc2nc3c(s2)C(=O)CC(C)(C)C3)c1
EC50 [17]: > 112 µM (not active) | EC50 [18]: > 112 µM (not active) | AC50 [19]: 41.9 µM (active)

COc1cccc2sc(NN)nc12
AC50 [5]: > 100 µM (inactive)
